ChEMBL document CHEMBL1131095, “Derivation of a three-dimensional pharmacophore model of substance P antagonists bound to the neurokinin-1 receptor” (J Med Chem, 1998)
Values belong to the compound of their own block, whether it stands above or below them.

Experiments:
Substance-P receptor [1] = molecular target: T1, Substance-P receptor (Homo sapiens, UniProt P25103); test: Binding affinity was measured against the Tachykinin receptor 1 in CHO-expressed hNK1 using [125I]SP.
Substance-P receptor [2] = molecular target: T1, Substance-P receptor; test: Binding affinity was measured against the Tachykinin receptor 1 in human IM-9 cells using [3H]SP as ligand.; type: cell-based
Substance-P receptor [3] = molecular target: T1, Substance-P receptor; test: Binding affinity was measured against the Tachykinin receptor 1 in human IM-9 cells using [125I]Bolton-Hunter SP.; type: cell-based

T1 sequence (P25103 whole entry): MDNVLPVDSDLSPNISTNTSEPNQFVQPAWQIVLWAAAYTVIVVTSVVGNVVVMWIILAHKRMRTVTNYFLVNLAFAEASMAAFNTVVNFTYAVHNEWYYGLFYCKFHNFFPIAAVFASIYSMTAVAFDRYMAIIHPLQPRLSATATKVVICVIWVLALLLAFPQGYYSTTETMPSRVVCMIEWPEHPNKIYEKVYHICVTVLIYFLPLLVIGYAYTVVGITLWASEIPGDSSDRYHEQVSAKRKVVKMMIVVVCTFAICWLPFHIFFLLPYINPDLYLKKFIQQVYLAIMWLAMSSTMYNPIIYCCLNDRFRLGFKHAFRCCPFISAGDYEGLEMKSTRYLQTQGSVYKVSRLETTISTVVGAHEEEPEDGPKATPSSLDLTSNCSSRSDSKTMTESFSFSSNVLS

SMILES: CN(Cc1ccccc1)C[C@H](Cc1ccc2ccccc2c1)NC(=O)[C@@H]1CCCC[C@@H]1NC(=O)c1c[nH]c2ccccc12
IC50 (Substance-P receptor [2]): 1260 nM

SMILES: FC(F)(F)c1cc(CO[C@H]2C3CCN(CC3)[C@H]2C(c2ccccc2)c2ccccc2)cc(C(F)(F)F)c1 [L-709210]
IC50 (Substance-P receptor [1]): 195 nM

SMILES: FC(F)(F)c1cc(COCC2(c3ccccc3)CCCCN2)cc(C(F)(F)F)c1 (centres undefined)
IC50 (Substance-P receptor [1]): 1 nM

SMILES: COc1ccccc1CN[C@H]1C2CCN(CC2)[C@H]1Cc1ccccc1
IC50 (Substance-P receptor [1]): 234 nM

SMILES: FC(F)(F)c1cc(CN[C@H]2C3CCN(CC3)[C@H]2C(c2ccccc2)c2ccccc2)cc(C(F)(F)F)c1
IC50 (Substance-P receptor [1]): 2 nM

SMILES: FC(F)(F)c1cc(CO[C@H]2CCCN(Cc3ncc[nH]3)[C@H]2c2ccccc2)cc(C(F)(F)F)c1
IC50 (Substance-P receptor [1]): 0.501 nM

SMILES: CN(Cc1ccccc1)C(=O)[C@H](Cc1ccc2ccccc2c1)NC(=O)[C@@H]1CCCC[C@@H]1NC(=O)c1c[nH]c2ccccc12
IC50 (Substance-P receptor [2]): 12.6 nM

SMILES: c1ccc(CN[C@H]2C3CC4CCC(C3)N4[C@H]2C(c2ccccc2)c2ccccc2)cc1
IC50 (Substance-P receptor [3]): 67.6 nM

SMILES: c1ccc(CO[C@H]2C3CCN(CC3)[C@H]2C(c2ccccc2)c2ccccc2)cc1
IC50 (Substance-P receptor [1]): 75.9 nM

SMILES: FC(F)(F)c1cc(COCC2(c3ccccc3)CCCNC2)cc(C(F)(F)F)c1 (centres undefined)
IC50 (Substance-P receptor [1]): 20 nM

SMILES: CN(Cc1ccccc1)C(=O)[C@H](Cc1ccccc1)NC(=O)[C@@H]1CCCC[C@@H]1NC(=O)c1c[nH]c2ccccc12
IC50 (Substance-P receptor [2]): 126 nM

SMILES: Cc1cc(C)cc(CO[C@H]2C3CCN(CC3)[C@H]2C(c2ccccc2)c2ccccc2)c1 [L-706125]
IC50 (Substance-P receptor [1]): 295 nM

SMILES: CC(=O)N[C@@H](Cc1csc2ccccc12)C(=O)OCc1cc(C(F)(F)F)cc(C(F)(F)F)c1 [L-709400]
IC50 (Substance-P receptor [1]): 15.1 nM

SMILES: FC(F)(F)c1cc(CO[C@H]2CCCN(Cc3cnc[nH]3)[C@H]2c2ccccc2)cc(C(F)(F)F)c1
IC50 (Substance-P receptor [1]): 1 nM

SMILES: c1ccc(CN[C@H]2C3C4CCCC3CN(C4)[C@H]2C(c2ccccc2)c2ccccc2)cc1
IC50 (Substance-P receptor [3]): 229 nM

SMILES: COc1ccccc1CN[C@H]1C2CC3CCCC2CN3[C@H]1C(c1ccccc1)c1ccccc1 (some centres undefined)
IC50 (Substance-P receptor [3]): 1.91 nM

SMILES: c1ccc(CN[C@H]2C3CC4CCCC(C3)N4[C@H]2C(c2ccccc2)c2ccccc2)cc1
IC50 (Substance-P receptor [3]): 170 nM

SMILES: N[C@H](COCc1ccccc1)C(c1ccccc1)c1ccccc1
IC50 (Substance-P receptor [1]): 363 nM

SMILES: c1ccc(CN[C@H]2C3CCN(CC3)[C@H]2C(c2ccccc2)c2ccccc2)cc1
IC50 (Substance-P receptor [1]): 28.8 nM

SMILES: COc1ccccc1CN[C@H]1C2CC3CCC(C2)N3[C@H]1C(c1ccccc1)c1ccccc1
IC50 (Substance-P receptor [3]): 0.912 nM

Other lines, results leading:

IC50 (Substance-P receptor [1]): 0.2 nM
SMILES: FC(F)(F)c1cc(CO[C@H]2CCCN(Cc3nnc[nH]3)[C@H]2c2ccccc2)cc(C(F)(F)F)c1

IC50 (Substance-P receptor [1]): 39.8 nM
SMILES: FC(F)(F)c1cc(CO[C@H]2CCCN(Cc3nnn[nH]3)[C@H]2c2ccccc2)cc(C(F)(F)F)c1

IC50 (Substance-P receptor [1]): 2690 nM
SMILES: O=C1O[C@@H](Cc2c[nH]c3ccccc23)C(=O)N1Cc1cccc(C(F)(F)F)c1

IC50 (Substance-P receptor [1]): 25.7 nM
SMILES: O=C1O[C@@H](Cc2c[nH]c3ccccc23)C(=O)N1Cc1cc(C(F)(F)F)cc(C(F)(F)F)c1

IC50 (Substance-P receptor [1]): 0.1 nM
SMILES: O=c1[nH]nc(CN2CCC[C@H](OCc3cc(C(F)(F)F)cc(C(F)(F)F)c3)[C@@H]2c2ccccc2)[nH]1

IC50 (Substance-P receptor [2]): 2.4 nM
SMILES: COc1ccccc1CN[C@H]1[C@@H]2CCC[C@@H]2N[C@H]1c1ccccc1

IC50 (Substance-P receptor [1]): 1 nM
SMILES: FC(F)(F)c1cc(CO[C@H]2CCCN(Cc3nnco3)[C@H]2c2ccccc2)cc(C(F)(F)F)c1

IC50 (Substance-P receptor [3]): 0.617 nM
SMILES: COc1ccccc1CN1CN2CCC[C@H]1[C@@H]2c1ccccc1

IC50 (Substance-P receptor [1]): 39.8 nM
SMILES: FC(F)(F)c1cc(CO[C@H]2CCCN(Cc3ccco3)[C@H]2c2ccccc2)cc(C(F)(F)F)c1

IC50 (Substance-P receptor [3]): 2 nM
SMILES: COc1ccccc1[C@@H]1CC[C@@]2(CCCN[C@H]2c2ccccc2)NC1

IC50 (Substance-P receptor [2]): 1.26 nM
SMILES: CN(Cc1ccccc1)C(=O)[C@H](Cc1ccc2ccccc2c1)NC(=O)C1(NC(=O)c2c[nH]c3ccccc23)CCCCC1

IC50 (Substance-P receptor [1]): 75.9 nM
SMILES: N[C@H](COCc1cccc(Cl)c1)C(c1ccccc1)c1ccccc1

IC50 (Substance-P receptor [2]): 20 nM
SMILES: CN(C(=O)Cc1ccccc1)[C@H](Cc1ccc2ccccc2c1)NC(=O)C1(NC(=O)c2c[nH]c3ccccc23)CCCCC1

IC50 (Substance-P receptor [1]): 52.5 nM
SMILES: CC(=O)N[C@@H](Cc1c[nH]c2ccccc12)C(=O)OCc1cc(C)cc(C)c1 [L-708568]

IC50 (Substance-P receptor [1]): 0.398 nM
SMILES: CN(Cc1ccccc1)C(=O)CN1CCC[C@H](OCc2cc(C(F)(F)F)cc(C(F)(F)F)c2)[C@@H]1c1ccccc1

IC50 (Substance-P receptor [1]): 81.3 nM
SMILES: Cc1cc(C)cc(COC[C@@H](Nc2ccccc2)C(c2ccccc2)c2ccccc2)c1

IC50 (Substance-P receptor [3]): 10000 nM
SMILES: COc1ccccc1[C@@H]1CC[C@@]2(CCCN[C@H]2c2ccccc2)N1

IC50 (Substance-P receptor [3]): 0.363 nM
SMILES: COc1ccccc1CN1CCN2CCC[C@H]1[C@@H]2c1ccccc1

IC50 (Substance-P receptor [2]): 316 nM
SMILES: O=C(Cc1ccccc1)N[C@H](Cc1ccc2ccccc2c1)NC(=O)[C@@H]1CCCC[C@@H]1NC(=O)c1c[nH]c2ccccc12
